Experimental data: US9751887B2, “Imidazo[1,2-b]pyridazine derivatives as kinase inhibitors” (Daiichi Sankyo Company, Limited, priority 2012, dated 2017)
Counter-ions that a name gives are not always drawn. Like-named read-outs stand apart in the source and are kept apart here.

What was measured:
[1] = molecular target: T1, ROS1 (Homo sapiens, UniProt P08922); test: ROS1 kinase inhibitory activity evaluation (mobility shift, EZ Reader II); format: biochemical; conditions: ROS1 25 pg/μL, FL-Peptide 22 substrate, three separate measurements
T1 construct: purchased Carna Biosciences 08-163
Experimental: Next, a substrate reaction solution was prepared. […] Then, the reaction stop solution was added thereto at a concentration of 40 μL/well. Substrate phosphorylation intensity was measured using EZ Reader II (Caliper Life Sciences).

[2] = molecular target: T1, ROS1; test: ROS1 autophosphorylation inhibitory activity evaluation (ADP-Glo); format: biochemical; conditions: 200 nM inactive ROS1, ATP 1 mM, 25° C. 1.5 hours, ADP generated, four separate measurements
Outline: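 ROS1 autophosphorylation ran with 1 mM final ATP in 50 mM HEPES pH 7.5, 10 mM MgCl2, 0.01% Brij-58, 2.5 mM DTT for 1.5 h at 25° C. ADP generated was read by ADP-Glo luminescence. IC50 values were obtained by curve fitting.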

[3] = system: HCC78 cells having ROS1 fusion gene; test: HCC78 cell growth assay (CellTiter-Glo); format: cell-based; conditions: Homo sapiens, 72 hours culture, 2% FBS medium, luminescence, four separate measurements, read-out: growth inhibitory effect on HCC78 cells having ROS1 fusion gene IC50

T1 sequence (P08922 28-2347): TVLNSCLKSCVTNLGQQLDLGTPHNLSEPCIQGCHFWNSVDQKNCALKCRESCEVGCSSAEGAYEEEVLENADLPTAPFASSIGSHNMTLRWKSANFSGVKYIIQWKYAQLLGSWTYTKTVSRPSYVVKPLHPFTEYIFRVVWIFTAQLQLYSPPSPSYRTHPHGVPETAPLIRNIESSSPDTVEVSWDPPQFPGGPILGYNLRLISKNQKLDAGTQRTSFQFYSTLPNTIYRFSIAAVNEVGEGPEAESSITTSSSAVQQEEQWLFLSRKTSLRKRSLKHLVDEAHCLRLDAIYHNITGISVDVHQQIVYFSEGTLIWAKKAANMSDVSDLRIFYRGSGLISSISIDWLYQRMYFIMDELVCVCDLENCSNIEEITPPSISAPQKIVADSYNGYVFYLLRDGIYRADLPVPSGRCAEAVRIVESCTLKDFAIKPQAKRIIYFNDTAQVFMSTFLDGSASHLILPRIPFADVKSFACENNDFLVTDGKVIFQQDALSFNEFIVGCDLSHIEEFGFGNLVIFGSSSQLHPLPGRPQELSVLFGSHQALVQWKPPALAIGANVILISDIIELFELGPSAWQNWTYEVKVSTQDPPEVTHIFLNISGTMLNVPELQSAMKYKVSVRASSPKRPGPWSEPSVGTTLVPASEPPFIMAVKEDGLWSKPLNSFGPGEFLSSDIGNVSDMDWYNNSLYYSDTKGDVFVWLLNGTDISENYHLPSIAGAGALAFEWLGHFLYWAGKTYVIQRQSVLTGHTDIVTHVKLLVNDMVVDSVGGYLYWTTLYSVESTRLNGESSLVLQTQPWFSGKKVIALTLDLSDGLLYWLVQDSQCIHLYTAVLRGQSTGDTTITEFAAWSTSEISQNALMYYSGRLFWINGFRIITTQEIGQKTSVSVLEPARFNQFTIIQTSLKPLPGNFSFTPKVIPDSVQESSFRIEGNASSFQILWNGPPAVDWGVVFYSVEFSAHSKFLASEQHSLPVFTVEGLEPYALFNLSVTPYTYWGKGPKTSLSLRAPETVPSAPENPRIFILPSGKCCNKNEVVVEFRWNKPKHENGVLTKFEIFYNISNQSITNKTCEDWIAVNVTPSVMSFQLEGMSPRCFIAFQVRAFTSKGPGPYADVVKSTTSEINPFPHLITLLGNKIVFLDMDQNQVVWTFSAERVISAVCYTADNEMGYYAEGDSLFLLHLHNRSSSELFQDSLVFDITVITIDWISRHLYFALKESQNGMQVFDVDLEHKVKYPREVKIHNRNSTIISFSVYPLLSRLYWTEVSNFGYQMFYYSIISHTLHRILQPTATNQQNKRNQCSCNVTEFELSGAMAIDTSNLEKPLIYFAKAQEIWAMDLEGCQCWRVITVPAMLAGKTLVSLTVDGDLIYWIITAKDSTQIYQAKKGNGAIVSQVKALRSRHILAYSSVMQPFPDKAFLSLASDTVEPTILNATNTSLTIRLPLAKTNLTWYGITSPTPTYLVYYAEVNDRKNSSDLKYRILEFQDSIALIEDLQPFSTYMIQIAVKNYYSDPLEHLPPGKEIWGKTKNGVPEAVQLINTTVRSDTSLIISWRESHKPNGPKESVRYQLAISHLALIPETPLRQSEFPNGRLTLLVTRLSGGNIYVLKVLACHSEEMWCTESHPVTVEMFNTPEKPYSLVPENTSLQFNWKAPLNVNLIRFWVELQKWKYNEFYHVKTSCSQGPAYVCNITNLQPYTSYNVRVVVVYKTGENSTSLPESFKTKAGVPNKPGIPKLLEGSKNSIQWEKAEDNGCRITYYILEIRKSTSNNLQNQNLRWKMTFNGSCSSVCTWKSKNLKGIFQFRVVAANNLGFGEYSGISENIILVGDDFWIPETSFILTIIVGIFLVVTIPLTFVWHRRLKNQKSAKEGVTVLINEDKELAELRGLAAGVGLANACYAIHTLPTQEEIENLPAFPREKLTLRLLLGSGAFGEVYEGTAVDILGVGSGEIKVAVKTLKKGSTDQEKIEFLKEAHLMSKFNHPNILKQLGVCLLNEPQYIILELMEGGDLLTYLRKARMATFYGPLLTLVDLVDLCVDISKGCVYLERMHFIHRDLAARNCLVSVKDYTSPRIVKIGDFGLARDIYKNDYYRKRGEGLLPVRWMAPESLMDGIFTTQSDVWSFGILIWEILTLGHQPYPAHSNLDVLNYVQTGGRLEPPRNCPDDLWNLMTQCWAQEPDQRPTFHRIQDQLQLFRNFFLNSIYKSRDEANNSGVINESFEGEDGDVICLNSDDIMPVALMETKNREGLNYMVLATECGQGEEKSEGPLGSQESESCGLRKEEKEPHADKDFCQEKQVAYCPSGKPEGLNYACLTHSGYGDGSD

| SMILES | IC50 [1] [µM] | IC50 [2] [µM] | IC50 ([3]; HCC78, 72 h) [µM] | IC50 ([3]; HCC78) [µM] |
| --- | --- | --- | --- | --- |
| c1ccc(CNc2ccc3ncc(-c4cccc(O[C@@H]5CCNC5)c4)n3n2)cc1 [Example 4, N-Benzyl-3-[3-[(3R)-pyrrolidin-3-yl]oxyphenyl]imidazo[1,2-b]pyridazin-6-amine] | 0.001 to 0.01 | 0.1 to 0.15 | 0.1 to 0.6 |  |
| C[C@H](N)COc1cccc(-c2cnc3ccc(N[C@H](C)c4cccc(F)c4)nn23)c1 [Example 65, 3-[3-[(2S)-2-Aminopropoxy]phenyl]-N-[(1R)-1-(3-fluorophenyl)ethyl]imidazo[1,2-b]pyridazin-6-amine] | 0.001 to 0.01 | < 0.02 | 0.02 to 0.1 |  |
| CN(Cc1cccc(F)c1F)c1ccc2ncc(-c3ccc(N4C[C@@H](N)CC4=O)nc3)n2n1 [Example 132, (4S)-4-Amino-1-[5-[6-[(2,3-difluorophenyl)methyl-methylamino]imidazo[1,2-b]pyridazin-3-yl]-2-pyridyl]pyrrolidin-2-one] | 0.001 to 0.01 | 0.02 to 0.1 | 0.02 to 0.1 |  |
| C[C@@H](Nc1ccc2ncc(-c3ccc(OC[C@@H]4CCCN4)c(C#N)c3)n2n1)c1cccc(F)c1 [Example 48, 5-[6-[[(1R)-1-(3-Fluorophenyl)ethyl]amino]imidazo[1,2-b]pyridazin-3-yl]-2-[[(2S)-pyrrolidin-2-yl]methoxy]benzonitrile] | < 0.001 | < 0.02 | < 0.02 |  |
| CNCCOc1ccc(-c2cnc3ccc(N[C@H](C)c4cccc(F)c4)nn23)cn1 [Example 46, N-[(1R)-1-(3-Fluorophenyl)ethyl]-3-[6-[2-(methylamino)ethoxy]-3-pyridyl]imidazo[1,2-b]pyridazin-6-amine] | < 0.001 | < 0.02 | < 0.02 |  |
| C[C@@H](Nc1ccc2ncc(-c3ccc(OC[C@H](N)CO)cc3)n2n1)c1cccc(F)c1 [Example 59, (2R)-2-Amino-3-[4-[6-[[(1R)-1-(3-fluorophenyl)ethyl]amino]imidazo[1,2-b]pyridazin-3-yl]phenoxy]propan-1-ol] | < 0.001 | < 0.02 | < 0.02 |  |
| CN(Cc1cccnc1)c1ccc2ncc(-c3ccc(N4C[C@@H](N)CC4=O)cc3)n2n1 [Example 117, (4S)-4-Amino-1-[4-[6-[methyl(3-pyridylmethyl)amino]imidazo[1,2-b]pyridazin-3-yl]phenyl]pyrrolidin-2-one] | 0.001 to 0.01 | 0.02 to 0.1 |  | 0.02 to 0.1 |
| C[C@@H](Nc1ccc2ncc(-c3ccc(SC[C@@H]4CCCN4)cc3)n2n1)c1ccccc1 [Example 20, N-[(1R)-1-Phenylethyl]-3-[4-[[(2S)-pyrrolidin-2-yl]methylsulfanyl]phenyl]imidazo[1,2-b]pyridazin-6-amine] | 0.001 to 0.01 | 0.02 to 0.1 | 0.1 to 0.6 |  |
| C[C@@H](Nc1ccc2ncc(-c3ccc(O[C@H]4CCC[C@H]4N)cc3)n2n1)c1cccc(F)c1 [Example 40, 3-[4-[(1S,2R)-2-Aminocyclopentoxy]phenyl]-N-[(1R)-1-(3-fluorophenyl)ethyl]imidazo[1,2-b]pyridazin-6-amine] | < 0.001 | < 0.02 | < 0.02 |  |
| C[C@H](O)[C@@H](N)COc1ccc(-c2cnc3ccc(N[C@H](C)c4cccc(F)c4)nn23)cc1 [Example 55, (2S,3S)-3-Amino-4-[4-[6-[[(1R)-1-(3-fluorophenyl)ethyl]amino]imidazo[1,2-b]pyridazin-3-yl]phenoxy]butan-2-ol] | < 0.001 | < 0.02 | < 0.02 |  |
| C[C@@H](Oc1ccc2ncc(-c3ccc(N4C[C@@H](N)CC4=O)c(F)c3)n2n1)c1cncc(F)c1 [Example 109, (4S)-4-Amino-1-[2-fluoro-4-[6-[(1R)-1-(5-fluoro-3-pyridyl)ethoxy]imidazo[1,2-b]pyridazin-3-yl]phenyl]pyrrolidin-2-one] | 0.01 to 0.06 | 0.1 to 0.15 | 0.02 to 0.1 |  |
| C[C@@H](Nc1ccc2ncc(-c3ccc(OCCNCCO)cc3)n2n1)c1cccc(F)c1 [Example 42, 2-[2-[4-[6-[[(1R)-1-(3-Fluorophenyl)ethyl]amino]imidazo[1,2-b]pyridazin-3-yl]phenoxy]ethylamino]ethanol] | < 0.001 | < 0.02 | < 0.02 |  |
| C[C@@H](Oc1ccc2ncc(-c3ccc(N4C[C@@H](N)CC4=O)cc3F)n2n1)c1cncc(F)c1 [Example 110, (4S)-4-Amino-1-[3-fluoro-4-[6-[(1R)-1-(5-fluoro-3-pyridyl)ethoxy]imidazo[1,2-b]pyridazin-3-yl]phenyl]pyrrolidin-2-one] | 0.001 to 0.01 | < 0.02 | 0.02 to 0.1 |  |
| C[C@@H](Nc1ccc2ncc(-c3ccc(O[C@H]4C[C@@H](N)C4)cc3)n2n1)c1cccc(F)c1 [Example 61, 3-[4-(3-cis-Aminocyclobutoxy)phenyl]-N-[(1R)-1-(3-fluorophenyl)ethyl]imidazo[1,2-b]pyridazin-6-amine] | 0.001 to 0.01 | < 0.02 | 0.02 to 0.1 |  |
| C[C@@H](Nc1ccc2ncc(-c3cccc(OCCCN)c3)n2n1)c1cccc(F)c1 [Example 68, 3-[3-(3-Aminopropoxy)phenyl]-N-[(1R)-1-(3-fluorophenyl)ethyl]imidazo[1,2-b]pyridazin-6-amine] | 0.001 to 0.01 | < 0.02 | 0.02 to 0.1 |  |
| CNC(C)COc1ccc(-c2cnc3ccc(N[C@H](C)c4cccc(F)c4)nn23)cc1 (stereo partly drawn) [Example 38, N-[(1R)-1-(3-Fluorophenyl)ethyl]-3-[4-[2-(methylamino)propoxy]phenyl]imidazo[1,2-b]pyridazin-6-amine] | < 0.001 | < 0.02 | < 0.02 |  |
| C[C@@H](Nc1ccc2ncc(-c3ccc(OC[C@@H]4CCN4)c(F)c3)n2n1)c1cccc(F)c1 [Example 44, 3-[4-[[(2S)-Azetidin-2-yl]methoxy]-3-fluoro-phenyl]-N-[(1R)-1-(3-fluorophenyl)ethyl]imidazo[1,2-b]pyridazin-6-amine] | < 0.001 | < 0.02 | < 0.02 |  |

More lines, main results first:

| IC50 [1] [µM] | IC50 [2] [µM] | IC50 ([3]; HCC78, 72 h) [µM] | SMILES | IC50 ([3]; HCC78) [µM] |
| --- | --- | --- | --- | --- |
| < 0.001 | < 0.02 | 0.02 to 0.1 | N[C@H]1CC(=O)N(c2ccc(-c3cnc4ccc(OCc5cccc(F)c5)nn34)cc2)C1 [Example 76, (4S)-4-Amino-1-[4-[6-[(3-fluorophenyl)methoxy]imidazo[1,2-b]pyridazin-3-yl]phenyl]pyrrolidin-2-one] |  |
| < 0.001 | 0.02 to 0.1 | 0.02 to 0.1 | CC1(N)CN(c2ccc(-c3cnc4ccc(OCc5cccc(F)c5)nn34)cc2)C(=O)C12CC2 (stereo not drawn) [Example 77, 7-Amino-5-[4-[6-[(3-fluorophenyl)methoxy]imidazo[1,2-b]pyridazin-3-yl]phenyl]-7-methyl-5-azaspiro[2.4]heptan-4-one] |  |
| 0.001 to 0.01 | 0.02 to 0.1 | 0.1 to 0.6 | CCN(Cc1ccccc1)c1ccc2ncc(-c3ccc(N4C[C@@H](N)CC4=O)cc3)n2n1 [Example 95, (4S)-4-Amino-1-[4-[6-[benzo(ethyl)amino]imidazo[1,2-b]pyridazin-3-yl]phenyl]pyrrolidin-2-one] |  |
| 0.001 to 0.01 | 0.1 to 0.15 | 0.1 to 0.6 | NCC1CC(=O)N(c2ccc(-c3cnc4ccc(OCc5cccc(F)c5)nn34)cc2)C1 (stereo not drawn) [Example 74, 4-(Aminomethyl)-1-[4-[6-[(3-fluorophenyl)methoxy]imidazo[1,2-b]pyridazin-3-yl]phenyl]pyrrolidin-2-one] |  |
| 0.001 to 0.01 | 0.02 to 0.1 | 0.1 to 0.6 | C[C@@H](Oc1ccc2ncc(-c3ccc(OCC4CCNCC4)cc3)n2n1)c1cccc(F)c1 [Example 17, 6-[(1R)-1-(3-Fluorophenyl)ethoxy]-3-[4-(4-piperidylmethoxy)phenyl]imidazo[1,2-b]pyridazine] |  |
| < 0.001 | 0.02 to 0.1 | 0.02 to 0.1 | C[C@@H](Oc1ccc2ncc(-c3ccc(OC[C@@H]4CCN4)cc3)n2n1)c1cccc(F)c1 [Example 18, 3-[4-[[(2S)-Azetidin-2-yl]methoxy]phenyl]-6-[(1R)-1-(3-fluorophenyl)ethoxy]imidazo[1,2-b]pyridazine hydrochloride] |  |
| < 0.001 | < 0.02 | < 0.02 | C[C@@H](Nc1ccc2ncc(-c3ccc(OCCN)cc3)n2n1)c1cccc(F)c1 [Example 26, 3-[4-(2-Aminoethoxy)phenyl]-N-[(1R)-1-(3-fluorophenyl)ethyl]imidazo[1,2-b]pyridazin-6-amine] |  |
| 0.01 to 0.06 | 0.1 to 0.15 | 0.1 to 0.6 | CC(Oc1ccc2ncc(-c3ccc(N4C[C@@H](N)CC4=O)cc3)n2n1)c1cc(C#N)n(C)n1 (stereo partly drawn) [Example 116, 5-[1-[3-[4-[(4S)-4-Amino-2-oxopyrrolidin-1-yl]phenyl]imidazo[1,2-b]pyridazin-6-yl]oxyethyl]-2-methylpyrazole-3-carbonitrile] |  |
| 0.001 to 0.01 | < 0.02 | 0.02 to 0.1 | CC(Oc1ccc2ncc(-c3ccc(N4C[C@@H](N)CC4=O)cc3)n2n1)c1cncc(Cl)c1 (stereo partly drawn) [Example 112] |  |
| 0.001 to 0.01 | 0.02 to 0.1 | 0.02 to 0.1 | Cc1ccc(F)cc1COc1ccc2ncc(-c3ccc(N4C[C@@H](N)CC4=O)cc3)n2n1 [Example 103, (4S)-4-Amino-1-[4-[6-[(5-fluoro-2-methylphenyl)methoxy]imidazo[1,2-b]pyriazin-3-yl]phenyl]pyrrolidin-2-one] |  |
